What all share (type): in vivo
The subject of experiment [1] is Pseudoperonospora cubensis. As to the kind of experiment: Greenhouse Test 1, foliar spray fungicide screen: downy mildew. The note with it: disease control rating, host squash, 400 ppm (+++ at 100 ppm).
In experiment [2] the test system is Southern corn rootworm (Diabrotica undecimpuctata howardi Barber). Put plainly: Mite/insect screen: corn rootworm, treated soil. The note with it: percent mortality, soil treatment; for mortality at 12 ppm: CRW rate 12.00 PPM; for mortality at 24 ppm: CRW rate 24.00 PPM.
The subject of the next experiment is Pyricularia oryzae. The note with it: disease control rating; foliar spray; host rice; 400 ppm (+++ at 100 ppm).
Another experiment concerns Botrytis cinerea. Put plainly: Greenhouse Test 1, foliar spray fungicide screen: gray mold. The note with it: disease control rating, host grape berries, 400 ppm (+++ at 100 ppm).
Experiment [3] concerns southern armyworm (Spodopetra eridania Cramer). Put plainly: Mite/insect screen: southern armyworm on sprayed squash leaves. To be noted: Spodoptera eridania, percent mortality, leaf spray, read-out: SAW RESULTS; for mortality at 200 ppm: rate 200 PPM; for mortality at 400 ppm: rate 400 PPM.
Experiment [4] deals with Twospotted spider mites (Tetranychus urticae Koch). Put plainly: Mite/insect screen: twospotted spider mites on sprayed squash cotyledons. The note with it: percent mortality, leaf spray, read-out: SM RESULTS; for mortality at 200 ppm: rate 200 PPM; for mortality at 400 ppm: rate 400 PPM.
Experiment [5] has as its system Puccinia recondita tritici. As to the kind of experiment: Greenhouse Test 1, foliar spray fungicide screen: leaf rust. The note with it: disease control rating, host wheat, 400 ppm (+++ at 100 ppm).
For experiment [6], the system named is Erysiphe graminis tritici. As to the kind of experiment: Greenhouse Test 1, foliar spray fungicide screen: powdery mildew. To be noted: disease control rating, host wheat, 400 ppm (+++ at 100 ppm).
Experiment [7] has as its system melon aphids (Aphis gossypii Glover). Put plainly: Mite/insect screen: melon aphids on sprayed squash cotyledons. To be noted: percent mortality, leaf spray, read-out: MA RESULTS; for mortality at 200 ppm: rate 200 PPM; for mortality at 400 ppm: rate 400 PPM.
A further experiment has as its system Cercospora beticola. As to the kind of experiment: Greenhouse Test 1, foliar spray fungicide screen: leaf spot. To be noted: disease control rating, host sugar beet, 400 ppm (+++ at 100 ppm).
A further experiment concerns Septoria tritici. Put plainly: Greenhouse Test 1, foliar spray fungicide screen: leaf blotch. To be noted: disease control rating, host wheat, 400 ppm (+++ at 100 ppm).
Another experiment concerns Venturia inaequalis. Put plainly: Greenhouse Test 1, foliar spray fungicide screen: apple scab. To be noted: disease control rating, host apple seedling, 400 ppm (+++ at 100 ppm).

`Fc1ccc(Oc2ccnc3ncccc23)cc1` [Example 1, 4-(4-fluorophenoxy)-1,8-naphthyridine]: the “DOWN MDEW” value in experiment [1] is “++ (++ = 90-100% control at 400 ppm)”. In addition, the mortality at 12 ppm in experiment [2] turned out to be 0%. In experiment [2], this compound displayed a mortality at 24 ppm of 0%. Moreover, the “RICE BLAST” value in the experiment with Pyricularia oryzae is recorded as “- (- = 0-19% control at 400 ppm)”. For the same compound, in the experiment with Botrytis cinerea, the “GRAY MOLD” value was “- (- = 0-19% control at 400 ppm)”. Besides, the mortality at 200 ppm in experiment [3], in [4] and in experiment [7] was 0% in each case. Further, the mortality at 400 ppm in [3], in experiment [4] and in experiment [7] was 0% throughout. Moreover, the “LEAF RUST” value in experiment [5] is reported as “++ (++ = 90-100% control at 400 ppm)”. In addition, the “POWD MDEW” value in [6] is reported as “+ (+ = 20-89% control at 400 ppm)”.
Turning to `Fc1ccc(Oc2ccnc3cnccc23)cc1` [Example 2, 4-(4-fluorophenoxy)-1,7-naphthyridine], in experiment [1], the “DOWN MDEW” value was “+ (+ = 20-89% control at 400 ppm)”. In addition, in experiment [2], the mortality at 12 ppm amounted to 0% and the mortality at 24 ppm came out at 0%. For the same compound, the “RICE BLAST” value in the experiment with Pyricularia oryzae is “- (- = 0-19% control at 400 ppm)”. For the same compound, in the experiment on Botrytis cinerea, the “GRAY MOLD” value is on record as “- (- = 0-19% control at 400 ppm)”. In experiment [3], the mortality at 200 ppm was 0% and the mortality at 400 ppm worked out at 0%. Moreover, in experiment [4], the mortality at 200 ppm turned out to be 40% and the mortality at 400 ppm amounted to 0%. The “LEAF RUST” value in experiment [5] is listed as “+ (+ = 20-89% control at 400 ppm)”. Moreover, the “POWD MDEW” value in experiment [6] is listed as “+ (+ = 20-89% control at 400 ppm)”. Further, in experiment [7], the mortality at 200 ppm stood at 30% and the mortality at 400 ppm came out at 0%.
In the case of `Fc1ccc(Oc2ccnc3ccncc23)cc1` [Example 3, 4-(4-fluorophenoxy)-1,6-naphthyridine], in experiment [1], the “DOWN MDEW” value is reported as “- (- = 0-19% control at 400 ppm)”. The mortality at 12 ppm in [2] worked out at 0%. Also, the mortality at 24 ppm in [2] came out at 0%. The “RICE BLAST” value with Pyricularia oryzae was “- (- = 0-19% control at 400 ppm)”. For the same compound, the “GRAY MOLD” value with Botrytis cinerea is “- (- = 0-19% control at 400 ppm)”. In addition, the mortality at 200 ppm in experiment [3], in experiment [4] and in experiment [7] was 0% in each case. Moreover, the mortality at 400 ppm in experiment [3], in [4] and in experiment [7] was 0% throughout. Besides, the “LEAF RUST” value in experiment [5] was “- (- = 0-19% control at 400 ppm)”. Further, the “POWD MDEW” value in experiment [6] was “- (- = 0-19% control at 400 ppm)”.
Regarding `Fc1ccc(Oc2ccnc3cccnc23)cc1` [Example 4, 4-(4-fluorophenoxy)-1,5-naphthyridine], the “DOWN MDEW” value in experiment [1] is “++ (++ = 90-100% control at 400 ppm)”. Further, in [2], the mortality at 24 ppm turned out to be 0%. Also, the “RICE BLAST” value in the experiment on Pyricularia oryzae was “+ (+ = 20-89% control at 400 ppm)”. Moreover, the “GRAY MOLD” value with Botrytis cinerea is “- (- = 0-19% control at 400 ppm)”. The mortality at 400 ppm was 0% in experiment [3], 80% in experiment [4] and 80% in experiment [7]. Also, the “LEAF RUST” value in [5] is “+ (+ = 20-89% control at 400 ppm)”. Also, in experiment [6], the “POWD MDEW” value is “+ (+ = 20-89% control at 400 ppm)”.
For `CC(C)(C)c1ccc(CCOc2ccnc3cccnc23)cc1` [Example 5, 4-[2-[4-(t-butyl)phenyl]ethoxy]-1,5-naphthyridine], the “DOWN MDEW” value in experiment [1] is “+++ (+++ = 90-100% control at 100 ppm)”. In experiment [2], this compound showed a mortality at 12 ppm of 0% and a mortality at 24 ppm of 0%. Moreover, the “RICE BLAST” value with Pyricularia oryzae is on record as “++ (++ = 90-100% control at 400 ppm)”. In addition, the “GRAY MOLD” value in the experiment on Botrytis cinerea is “- (- = 0-19% control at 400 ppm)”. Moreover, in experiment [3], the mortality at 200 ppm came to 0% and the mortality at 400 ppm worked out at 0%. Further, in experiment [4], the mortality at 200 ppm came out at 100% and the mortality at 400 ppm was found to be 100%. For the same compound, the “LEAF RUST” value in [5] was “++ (++ = 90-100% control at 400 ppm)”. Besides, the “POWD MDEW” value in experiment [6] is “+ (+ = 20-89% control at 400 ppm)”. In experiment [7], the mortality at 200 ppm amounted to 50% and the mortality at 400 ppm was 80%.
For the compound `CCOc1ccc(CCCOc2ccnc3cccnc23)cc1` [Example 6, 4-[3-(4-ethoxyphenyl)propoxy]-1,5-naphthyridine], in [1], the “DOWN MDEW” value is “- (- = 0-19% control at 400 ppm)”. Also, in experiment [2], the mortality at 12 ppm came out at 0%. In addition, the mortality at 24 ppm in [2] came to 0%. Further, the “RICE BLAST” value with Pyricularia oryzae is “- (- = 0-19% control at 400 ppm)”. Besides, in the experiment with Botrytis cinerea, the “GRAY MOLD” value was “- (- = 0-19% control at 400 ppm)”. Moreover, the mortality at 200 ppm in experiment [3], in experiment [4] and in experiment [7] was 0% throughout. Besides, the mortality at 400 ppm in experiment [3], in [4] and in experiment [7] was 0% each time. In addition, the “LEAF RUST” value in [5] is given as “- (- = 0-19% control at 400 ppm)”. For the same compound, the “POWD MDEW” value in experiment [6] is “- (- = 0-19% control at 400 ppm)”.
As for `CC(C)(C)c1ccc(CCNc2ccnc3cccnc23)cc1` [Example 7, N-[2-[4-(t-butyl)phenyl]ethyl]-1,5-naphthyridin-4-amine], the “DOWN MDEW” value in experiment [1] was “+++ (+++ = 90-100% control at 100 ppm)”. For the same compound, the mortality at 12 ppm in experiment [2] came out at 0%. Besides, the mortality at 24 ppm in [2] came to 0%. The “RICE BLAST” value in the experiment on Pyricularia oryzae is listed as “++ (++ = 90-100% control at 400 ppm)”. In addition, the “GRAY MOLD” value with Botrytis cinerea is on record as “- (- = 0-19% control at 400 ppm)”. Further, the figures for the mortality at 200 ppm in [3], in [4] and in experiment [7] were 0%, 90% and 90%, respectively. The mortality at 400 ppm came out at 0% in [3], 100% in experiment [4] and 100% in experiment [7]. In experiment [5], the “LEAF RUST” value is “+++ (+++ = 90-100% control at 100 ppm)”. The “POWD MDEW” value in [6] was “++ (++ = 90-100% control at 400 ppm)”.
For the compound `Clc1ccccc1Oc1ccnc2ncccc12` [Example 8, 4-(2-chlorophenoxy)-1,8-naphthyridine], in experiment [1], the “DOWN MDEW” value is given as “++ (++ = 90-100% control at 400 ppm)”. In [2], this compound displayed a mortality at 12 ppm of 0% and a mortality at 24 ppm of 0%. In the experiment on Pyricularia oryzae, the “RICE BLAST” value is on record as “+ (+ = 20-89% control at 400 ppm)”. For the same compound, the “GRAY MOLD” value in the experiment on Botrytis cinerea is reported as “- (- = 0-19% control at 400 ppm)”. Further, in experiment [3], the mortality at 200 ppm was found to be 0% and the mortality at 400 ppm was found to be 0%. For the same compound, in experiment [4], the mortality at 200 ppm is 0% and the mortality at 400 ppm was determined as 0%. For the same compound, the “LEAF RUST” value in [5] is recorded as “+ (+ = 20-89% control at 400 ppm)”. Further, the “POWD MDEW” value in [6] is reported as “- (- = 0-19% control at 400 ppm)”. In [7], the mortality at 200 ppm is 0% and the mortality at 400 ppm was determined as 0%.
Regarding `CCOc1ccc(CCOc2ccnc3cccnc23)cc1` [Example 9, 4-[2-(4-ethoxyphenyl)ethoxy]-1,5-naphthyridine], the “DOWN MDEW” value in [1] was “++ (++ = 90-100% control at 400 ppm)”. In experiment [2], the mortality at 12 ppm amounted to 0% and the mortality at 24 ppm was determined as 0%. The “RICE BLAST” value with Pyricularia oryzae is recorded as “++ (++ = 90-100% control at 400 ppm)”. Moreover, in the experiment with Botrytis cinerea, the “GRAY MOLD” value is given as “- (- = 0-19% control at 400 ppm)”. Besides, in experiment [3], the mortality at 200 ppm was 0% and the mortality at 400 ppm amounted to 0%. Moreover, in [4], the mortality at 200 ppm is 40% and the mortality at 400 ppm stood at 80%. Also, in experiment [5], the “LEAF RUST” value is on record as “+++ (+++ = 90-100% control at 100 ppm)”. For the same compound, the “POWD MDEW” value in [6] was “+ (+ = 20-89% control at 400 ppm)”. Moreover, in experiment [7], the mortality at 200 ppm was 100% and the mortality at 400 ppm turned out to be 100%.
Consider `c1ccc(CCNc2ccnc3cccnc23)cc1` [Example 10, N-(2-phenylethyl)-1,5-naphthyridin-4-amine], for which the “DOWN MDEW” value in experiment [1] is “+++ (+++ = 90-100% control at 100 ppm)”. Also, the mortality at 12 ppm in experiment [2] stood at 0%. In addition, in the experiment with Pyricularia oryzae, the “RICE BLAST” value was “+ (+ = 20-89% control at 400 ppm)”. Further, the “GRAY MOLD” value with Botrytis cinerea is given as “- (- = 0-19% control at 400 ppm)”. In addition, the mortality at 200 ppm in experiment [3], in experiment [4] and in experiment [7] was 0% in each case. Besides, the “LEAF SPOT” value in the experiment on Cercospora beticola is “+ (+ = 20-89% control at 400 ppm)”. Further, the “LEAF BLOT” value in the experiment with Septoria tritici is “- (- = 0-19% control at 400 ppm)”. In addition, in the experiment with Venturia inaequalis, the “APPL SCAB” value is on record as “+ (+ = 20-89% control at 400 ppm)”. Further, the “LEAF RUST” value in experiment [5] is “+ (+ = 20-89% control at 400 ppm)”. Also, the “POWD MDEW” value in experiment [6] was “+ (+ = 20-89% control at 400 ppm)”.

The values above are taken from patent EP0410762A1, “Naphthyridine derivatives” (DowElanco, priority 1989, dated 1991).
